Results on 2 substances are retold here after patent US8163479B2, “Specific substrates for O6-alkylguanine-DNA alkyltransferase” (Ecole Polytechnique Federale de Lausanne, priority 2004, dated 2012).

Changes are numbered by the printed parent chain.

In one assay the test system is AGTM or AGT21. Kind of assay: One-pot labeling and separation with streptavidin magnetic beads. Type of assay: biochemical, human. Conditions: 5 μM protein, 10 μM substrate, 1 hour; fluorescence 490/535 nm in supernatant. The method, then:
In other experiments, purified AGTM or AGT21 (Example 47) in a protein concentration of 5 μM are incubated with 10 μM N-[4-(2-amino-8-(3-(N-(+)-biotinyl-6-aminocaproyl)-aminopropyl)-9H-purin-6-yloxymethyl)-benzyl]-fluoresceine-5(6)-carboxamide (52, Example 34) in 50 μl buffer containing 100 mM NaCl, 50 mM Tris, pH 8.0, 0.1% Tween, 1 mM DTT at room temperature. After 1 hour, streptavidin coated magnetic beads (Magnabind Streptavidin, Pierce) with a capacity to bind at least 1 nmol biotin are added and the incubation time and magnetic separation from the supernatant containing fluorescein-labeled protein are done according to manufacturer's instructions for use. The amount of protein in solution before and after the treatment with magnetic beads is determined by Bradford assay. The loss of protein is less than 30%. The labeling efficiency is determined by measuring the fluorescence intensity using a Victor2 microplate reader (Perkin Elmer) at 490 nm excitation and 535 nm emission in the supernatant after removal of the unreacted substrate and released product by binding to the beads and magnetic separation. The labeling efficiency is at least 20%.

A further assay has as its target T1, AGTM (Homo sapiens, UniProt P16455, A127T/C150N/C62A/G131K/G132T/K125A/M134L/N157G/Q115S/Q116H/R128A/R135S/S151I/S152N/S159E).
T1 construct: a truncation after codon 182 into the mutant AGT gene
T1 sequence (P16455 1-182 C62A/Q115S/Q116H/K125A/A127T/R128A/G131K/G132T/M134L/R135S/C150N/S151I/S152N/N157G/S159E): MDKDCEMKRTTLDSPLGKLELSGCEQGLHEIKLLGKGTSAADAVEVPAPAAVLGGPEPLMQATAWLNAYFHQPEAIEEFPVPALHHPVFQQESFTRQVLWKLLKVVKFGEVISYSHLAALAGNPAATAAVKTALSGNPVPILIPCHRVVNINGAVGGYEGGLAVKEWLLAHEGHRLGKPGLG
The assay can be described thus: Labeling with substrate pre-immobilized on streptavidin magnetic beads. Type of assay: biochemical. Particulars: AGTM 50 μM, 20 h. The method, then:
In a further experiment, wherein the substrate is pre-immobilized, streptavidin coated magnetic beads (Magnabind Streptavidin, Pierce) with a capacity to bind […] biotin per ml are incubated with twofold excess of compound 52 (as above) in buffer containing 100 mM NaCl, 50 mM Tris, pH 8.0, 0.1% Tween at room temperature to immobilize the substrate to the beads. The incubation time and magnetic separation from the supernatant are done according to manufacturer's instructions for use. Unbound substrate is removed with buffer by 3 subsequent washing steps. AGTM at a protein concentration of 50 μM is incubated with these substrate-modified beads in 50 μl buffer containing 100 mM NaCl, 50 mM Tris, pH 8.0, 0.1% Tween, 1 mM DTT at room temperature. After 20 h, the beads are separated from the supernatant containing fluorescein-labeled protein. The amount of protein in solution before and after the treatment with magnetic beads is determined by Bradford assay.

The target of assay [1] is T2, wild type hAGT-GST fusion protein (Homo sapiens, UniProt P16455).
T2 sequence (P16455 1-207): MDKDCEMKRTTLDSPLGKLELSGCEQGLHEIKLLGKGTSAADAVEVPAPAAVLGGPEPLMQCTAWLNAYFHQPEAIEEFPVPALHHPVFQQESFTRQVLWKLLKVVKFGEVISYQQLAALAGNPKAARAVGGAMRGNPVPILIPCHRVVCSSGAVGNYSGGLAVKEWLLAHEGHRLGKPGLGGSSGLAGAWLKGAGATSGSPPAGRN
Kind of assay: In vitro competition CPTG/BGBT, both proteins in one solution. Type of assay: biochemical. Particulars: both substrates CPTG and BGBT 5 μM, 30 min. As for the experimental part:
(§1) Detection of the AGTM-BGBT complex with luminescent peroxidase substrate is as described for FIG. 2.
(§2) The reaction is quenched by addition of 2×SDS buffer and placed 2 min at 95° C. Samples are run on a 12% acrylamide gel and analysed by Western blotting.
(§3) In comparing the reaction of AGTM and wild type hAGT, a high specificity of CPTG toward hAGT is observed. At the same concentration (both substrates 5 μM final concentration), 95% of wild type AGT has reacted with CPTG versus only 5% of AGTM.

For assay [2], the target named is T3, AGTM-6×His fusion protein (Homo sapiens, UniProt P16455, A127T/C150N/C62A/G131K/G132T/K125A/M134L/N157G/Q115S/Q116H/R128A/R135S/S151I/S152N/S159E).
T3 construct: a truncation after codon 182 into the mutant AGT gene; 6xHis
T3 sequence (P16455 1-182 C62A/Q115S/Q116H/K125A/A127T/R128A/G131K/G132T/M134L/R135S/C150N/S151I/S152N/N157G/S159E): T1 sequence (P16455 1-182 C62A/Q115S/Q116H/K125A/A127T/R128A/G131K/G132T/M134L/R135S/C150N/S151I/S152N/N157G/S159E)
The assay is described as above. Conditions: both substrates CPTG and BGBT 5 μM, 30 min. It counts as biochemical. As for the experimental part: as §1, §2, §3

A further assay concerns the target T4, AGTM (mutant AGT) (Homo sapiens, UniProt P16455, A127T/C150N/C62A/G131K/G132T/K125A/M134L/N157G/Q115S/Q116H/R128A/R135S/S151I/S152N/S159E).
T4 construct: a truncation after codon 182 into the mutant AGT gene; 6xHis
T4 sequence (P16455 1-182 C62A/Q115S/Q116H/K125A/A127T/R128A/G131K/G132T/M134L/R135S/C150N/S151I/S152N/N157G/S159E): T1 sequence (P16455 1-182 C62A/Q115S/Q116H/K125A/A127T/R128A/G131K/G132T/M134L/R135S/C150N/S151I/S152N/N157G/S159E)
The assay can be described thus: Reaction rate of AGT mutant with substrate, BGBT capture and Western blot. Type of assay: biochemical. An excerpt:
Proteins are then denatured with SDS and heat. Samples are subjected to SDS-PAGE and Western blot analysis. The intensity of the corresponding bands is detected by chemiluminescence stain.
A second AGT mutant (“AGTM”) containing the mutations Cys62Ala, Gln115Ser, Gln116His, Lys125Ala, Ala127Thr, Arg128Ala, Gly131Lys, Gly132Thr, Met134Leu, Arg135Ser, Cys150Asn, Ser15111e, Ser152Asn, Asn157Gly, Ser159G1u, and truncation at 182 is derived from the mentioned above AGT mutant by subsequent introduction of further mutations and a truncation after codon 182 into the mutant AGT gene. […] The GST-fusion protein is expressed and purified as well.
AGTM (1 μM final concentration) is incubated with N^9-cyclopentyl-O^6-(4-bromothiophen-2-yl)-guanine (18, CPTG) (10 μM in 1% DMSO final concentration) in reaction buffer (50 mM HEPES, 1 mM DTT, […] BSA, pH 7.3) at 24° C. […] The reaction is quenched by addition of SDS-Laemmli buffer and heating for 2 min at 95° C. Samples are run on a 12% acrylamide gel and analysed by Western blotting.

Assay [3] has as its target T5, AGT (Gly160Trp)-NLS3 fusion protein in the nucleus of CHO cells (Homo sapiens, UniProt P16455, G160W).
T5 construct: expressed in transfected cells; host or cells: CHO cells, transient expression
T5 sequence (P16455 1-207 G160W): T2 sequence (P16455 1-207) with G160W
The assay can be described thus: Intracellular competition of two AGT mutants with two substrates in CHO cells. Type of assay: cell-based. Particulars: 5 μM CPTG 10 min, then 5 μM BG-AcFL 20 min. An excerpt: (§4) The mutant AGTM (Example 47) is amplified with the suitable primers and cloned between the NheI and BglII sites of the vector pEGFP-Nuc. The yeast β-galactosidase gene is likewise amplified and subcloned into this vector via BglII/BamHI to result in a vector with an AGT-β-Gal fusion gene. The wild type hAGT gene is amplified and cloned via NheI/BglII into pEGFP-Nuc to result in an AGT-NLS3 fusion gene coding for the mutation Gly160Trp.

Assay [4] has as its target T6, AGTM-β-galactosidase fusion protein in CHO cells (Homo sapiens, UniProt P16455, A127T/C150N/C62A/G131K/G132T/K125A/M134L/N157G/Q115S/Q116H/R128A/R135S/S151I/S152N/S159E).
T6 construct: a truncation after codon 182 into the mutant AGT gene; expressed in transfected cells; host or cells: CHO cells, transient expression
T6 sequence (P16455 1-182 C62A/Q115S/Q116H/K125A/A127T/R128A/G131K/G132T/M134L/R135S/C150N/S151I/S152N/N157G/S159E): T1 sequence (P16455 1-182 C62A/Q115S/Q116H/K125A/A127T/R128A/G131K/G132T/M134L/R135S/C150N/S151I/S152N/N157G/S159E)
The description is as above. It counts as cell-based. Conditions: 5 μM CPTG 10 min, then 5 μM BG-AcFL 20 min.
Description: as §4

The next assay addresses T7, Mutant AGT (AGTM) (Homo sapiens, UniProt P16455, A127T/C150N/C62A/G131K/G132T/K125A/M134L/N157G/Q115S/Q116H/R128A/R135S/S151I/S152N/S159E).
T7 construct: a truncation after codon 182 into the mutant AGT gene
T7 sequence (P16455 1-182 C62A/Q115S/Q116H/K125A/A127T/R128A/G131K/G132T/M134L/R135S/C150N/S151I/S152N/N157G/S159E): T1 sequence (P16455 1-182 C62A/Q115S/Q116H/K125A/A127T/R128A/G131K/G132T/M134L/R135S/C150N/S151I/S152N/N157G/S159E)
Kind of assay: In vitro competition between CPTG and BGBT, separate incubation. Type of assay: biochemical. Conditions: CPTG 20 times higher than BGBT (0.5 μM), after 45 minutes. As for the experimental part: as §2

In the next assay the target is T8, wild type hAGT (Homo sapiens, UniProt P16455).
T8 sequence (P16455 1-207): T2 sequence (P16455 1-207)
The description is as above. Conditions: CPTG 20 times higher than BGBT (0.5 μM), after 45 minutes. It counts as biochemical. The method, then:
as §2

Regarding “N-[4-(2-Amino-8-(3-(N-(+)-biotinyl-6-aminocaproyl)-aminopropyl)-9H-purin-6-yloxymethyl)-benzyl]-fluoresceine-5(6)-carboxamide [compound 52]”, the labeling efficiency result with AGTM or AGT21 and at AGTM was “at least 20%” throughout. For the same substance, at AGTM (Bradford assay), the loss of protein result was “less than 30%”.

On to “N^9-Cyclopentyl-O^6-(4-bromothiophen-2-yl)-guanine [CPTG]”, for which the “wild type AGT reacted with CPTG” value in assay [1] amounted to 95%. Besides, the “AGTM reacted with CPTG” value in assay [2] turned out to be 5%. In addition, the “activity ratio of the two substrates BGBT/CPTG” value on AGTM (mutant AGT) (AGTM) is “at least 25”. Further, on AGTM (mutant AGT) (AGTM 1 μM, substrate 10 μM, 24° C., pH 7.3), the “second order rate constant k2” value came to 92.5 M⁻¹ s⁻¹. The results for the “reaction with CPTG inside cells” value in assay [3] and in assay [4] were “efficiently reacts with CPTG” and “does not react with CPTG”, respectively. In addition, on Mutant AGT (AGTM), the “mutant AGTM still active” value amounted to 87%. Besides, the “wild type AGT quenched by CPTG” value on wild type hAGT was found to be 95%.
